Data: US10316000B2, “Coupled recognition/detection system for in vivo and in vitro use” (Cornell University, priority 2009, dated 2019)
Entries after “also recorded” stand apart in the source; their conditions may differ. Blank lines part the entries; values can stand above or below the molecule they belong to.

What was measured:
[1] = Phenolic pKa and phenol/phenolate absorbance of fluorophores; type: physicochemical; conditions: for pKa: phenolic proton of free fluorophore
Method: The pKa of DFHBI was calculated using the presence of the distinct phenol and phenolate absorbance peaks. […] This dramatic reduction in […] would ensure that a majority of fluorophore molecules would now be in the phenolate form at physiological pH.

[2] = Fluorescence of aptamer-DFHBI complexes; type: biochemical; conditions: unchanged between unbound and bound fluorophore
Description: The addition of the fluoro groups appeared to cause a slight blue shift in the fluorescence with excitation and emission maxima at 460 nm and 500 nm, respectively (FIG. 12A). […] Thus, further characterization was only carried out on these two brightest clones. […] This increased brightness derived mainly from an increase in the quantum yield from 0.08 for DMHBI-RNA complexes to over 0.6 for DFHBI-RNA complexes. The extinction coefficient for DFHBI remained unchanged between unbound and bound fluorophore: 26,000 M^−1cm^−1.
Equimolar solutions of 24-1-DFHBI complex and eGFP were prepared to measure their relative fluorescence intensity. […] Mg^2+ ion requirement, on the other hand, is much greater for 24-1 and 24-2 than for 13-2 (FIG. 12D). Both 24-1 and 24-2 are optimally fluorescent at 25 mM MgCl2 with only a subtle decrease when the concentration is dropped to 5 mM (the concentration used for SELEX). However, dropping MgCl2 concentration from 5 mM to a more physiological concentration of 0.5 mM results in a 50% drop in fluorescence for both aptamers. Further decreasing the MgCl2 concentration completely abolishes 24-1 fluorescence at ˜0.01 mM, while 24-2 levels out at ˜45% intensity at 0.01 mM MgCl2.

[3] = Fluorescence of free fluorophore (ethanol glass, glycerol viscosity); type: physicochemical
Description: In GFP, the chromophore is held inside the protein β-barrel structure and rigidified by direct interactions with over a dozen amino acid residues (FIG. 1C). This inflexible positioning of the chromophore by the protein is the reason for its large fluorescent quantum yield. Similarly, the synthetic GFP chromophores 4-hydroxybenzilidene-1,2-dimethyl-imidazol-5-one (“HBDI”) is capable of bright fluorescence only when rigidified by solidified solvents (Niwa et al., “Chemical Nature of the Light Emitter of the Aequorea Green Fluorescent Protein,” Proc. Nat'l Acad. Sci. USA 93:13617-13622 (1996), which is hereby incorporated by reference in its entirety). […] As an initial experiment DMHBI was first dissolved in ethanol and frozen in liquid nitrogen to create an ethanol glass matrix.
To more precisely determine the effect of immobilization on DMHBI fluorescence, 10 μM DMHBI in aqueous buffer was prepared and its fluorescence spectrum was measured in increasing concentrations of glycerol. Because glycerol is known to affect the viscosity of aqueous solutions in a predictable manner, the effect of increasing viscosity on DMHBI fluorescence can be readily measured. An increase in fluorescence intensity with increasing concentrations of glycerol was observed (FIG. 2B).
This is in agreement with previously reported data of the fluorescence spectrum of synthetic GFP chromophore, which is incapable of the excited-state proton transfer reaction that is responsible for green emission spectra found in the GFP protein. […] The reason for this is that the phenolic moiety of the chromophore remains protonated at neutral pH and in the context of the original protein. Deprotonation to the phenolate results in an excitation maxima at ˜475 nm.
Additionally, DFHBI was nonfluorescent when administered to HEK 293 cells, proving its utility for methods involving live cells.

HEK 293 cells = test: Non-specific fluorescence of dyes in HEK 293 cells; type: cell-based; conditions: for non-specific fluorescence in cells: 10 μM, epifluorescent microscope
Method: Previous studies to utilize conditionally fluorescent RNA binding dyes had focused on triphenylmethane scaffold dyes such as malachite green. However, these studies were halted by the discovery that many of these conditionally fluorescent dyes could interact with cellular components causing the cells to nonspecifically fluoresce. To determine whether the fluorophores of the present invention would be nonspecifically fluorescent in cells, HEK 293 cells were incubated with 10 μM DMHBI and visualized using an epifluorescent microscope.

[4] = Dissociation constant of aptamer-DMHBI complexes by fluorescence titration; type: binding
Description: The first step in characterizing the interaction between fluorescence-inducing aptamers of DMHBI was to determine their binding affinities. Because binding of the RNA to DMHBI results in fluorescence, the dissociation constant (Kd) was obtained by titrating increasing amounts of DMHBI to a solution of the aptamer. To correct for any increases in DMHBI background fluorescence, measurements of DMHBI alone at the same concentrations were taken and subtracted from the binding data. These measurements were then used to extrapolate RNA-fluorophore dissociation constants. DMHBI bound to both 3-6 and 13-2 with roughly equal dissociation constants of 500 nM (FIG. 5A).

aptamer 13-2 = test: Quantum yield, extinction coefficient and brightness of DMHBI alone and with aptamer 13-2; type: physicochemical
Method: Lucifer Yellow and Cascade Yellow, two fluorophores with known quantum yields, were used as standards and the relative slope changes in the curve depicting absorbance vs. total fluorescence were compared. Values were calculated for DMHBI alone and DMHBI with aptamer 13-2 to identify the underlying reason for fluorescence increase. […] Quantum yield, however, increased enormously from 0.0006 for DMHBI alone to 0.08 for the aptamer-DMHBI complex—an over 100-fold increase. Total brightness, measured as the product of extinction coefficient and quantum yield, went from 0.008 to 1.23 (150-fold). […] More importantly, the fold-increases in both quantum yield and brightness are more than sufficient for detection of the aptamer-fluorophore complex.

[5] = cited from earlier work; for emission maxima: literature values
[6] = ATP-dependent fluorescent sensor from aptamer 13-2 with DMHBI; type: biochemical
Description: FIGS. 22A-B illustrate the design of a fluorescent ATP sensor using aptamer 13-2. FIG. 22A illustrates how aptamer 13-2 (nt 4-60 of SEQ ID NO: 3, structure from mFOLD, left) was modified by fusing it to a previously-described ATP-aptamer (see structure on right). An unstable stem was fused from the ATP aptamer to 13-2 at the stem A entry point, generating the sensor of SEQ ID NO: 62. FIG. 22B confirms that the fused aptamer construct can be used as an ATP-dependent fluorescent sensor. In the absence of ATP, there is minimal fluorescence, even in the presence of DMHBI (lower curve). However, after addition of 1 mM ATP, the fluorescence increases nearly 30-fold (upper curve).
The mutagenesis studies described in Example 8 confirmed that stem loop A of aptamer 13-2 (see FIG. 22A) could be mutated as long as a stem-forming sequence was retained. Using the same approach identified in Example 17 (for aptamer 24-1), stem-loop A was used as an entry point for introducing an ATP aptamer along with stem destabilization.

[7] = highly viscous solutions, pH 7.4

absorbance maximum, phenol [1]: 363 nm | absorbance maximum, phenolate [1]: 420 nm | pKa [1]: ~6 | extinction coefficient [2]: 26,000 M^−1cm^−1 | fluorescence in ethanol glass and at high glycerol concentrations [3]: robustly fluorescent | fluorescence in non-viscous solutions [3]: negligible fluorescence
Molecule: CC1=N/C(=C\c2cc(F)c(O)c(F)c2)C(=O)N1C [DFHBI, 4-(3,5-difluoro-4-hydroxybenzylidene)-1,2-dimethyl-imidazol-5-one]
fluorescence when administered to cells (HEK 293 cells): nonfluorescent

Kd ([4]; aptamer not named, read-out: Kd of the complex (RNA-bound DMHBI)): 500 nM | fraction deprotonated ([1]; pH 8): ~50% | fluorescence in glycerol ([3]; 10 μM in aqueous buffer, 20% glycerol): very limited fluorescence | emission peak [3, 7]: 460 nm | excitation peak [3, 7]: 400 nm | quantum yield (aptamer 13-2; DMHBI alone): 0.0006 | total brightness (product of extinction coefficient and quantum yield) (aptamer 13-2; DMHBI alone): 0.008 | molar extinction coefficient (aptamer 13-2; DMHBI bound by aptamer 13-2): 15,358 M^−1cm^−1 | quantum yield (aptamer 13-2; aptamer-DMHBI complex): 0.08 | total brightness (product of extinction coefficient and quantum yield) (aptamer 13-2; aptamer-DMHBI complex): 1.23 | increase in quantum yield (aptamer 13-2; complex vs DMHBI alone): over 100 fold | increase in total brightness (aptamer 13-2; complex vs DMHBI alone): 150 fold | molar extinction coefficient (aptamer 13-2; unbound DMHBI): 13,164 M^−1cm^−1
Molecule: COc1cc(/C=C2\N=C(C)N(C)C2=O)cc(OC)c1O [DMHBI, 4-(4-hydroxy-3,5-dimethoxybenzylidene)-1,2-dimethyl-imidazol-5-one]
dissociation τ1/2 ([4]; inferred from Kd assuming diffusion-limited association rates): < 0.1 s | fluorescence in ethanol glass ([3]; frozen in liquid nitrogen, 77° K): dramatic fluorescent enhancement; also recorded: brilliantly fluorescent | fluorescence in ethanol ([3]; room temperature): nonfluorescent; also recorded: non-fluorescent | non-specific fluorescence in cells (HEK 293 cells): no increase in background fluorescence; also recorded: No non-specific fluorescence

pKa [1]: ~10
Molecule: CC1=N/C(=C\c2ccccc2O)C(=O)N1C [o-HBDI, 4-(2-hydroxybenzylidene)-1,2-dimethyl-imidazol-5-one]
emission maxima [5]: 605 nm

Molecule: CN(C)c1ccc(C(=C2C=CC(=[N+](C)C)C=C2)c2ccccc2)cc1 [malachite green, reference compound]
non-specific fluorescence in cells (HEK 293 cells): intensely fluorescent; also recorded: cells turn fluorescent

Molecule: 4-hydroxybenzylidene-1-methyl-2-penta-1,3-dien-1-yl-imidazolinone [reference compound]
emission maxima [5]: 523 nm

B1: DsRed: bright red fluorescent protein from coral (Discosoma spp.) (protein, UniProt Q9U6Y8 1-225, looked up)
Red fluorescent protein …: MRSSKNVIKEFMRFKVRMEGTVNGHEFEIEGEGEGRPYEGHNTVKLKVTKGGPLPFAWDILSPQFQYGSKVYVKHPADIPDYKKLSFPEGFKWERVMNFEDGGVVTVTQDSSLQDGCFIYKVKFIGVNFPSDGPVMQKKTMGWEASTERLYPRDGVLKGEIHKALKLKDGGHYLVEFKSIYMAKKPVQLPGYYYVDSKLDITSHNEDYTIVEQYERTEGRHHLFL
excitation maxima ([5]; literature value): 558 nm | emission maxima [5]: 583 nm

B2: sensor of SEQ ID NO: 62: aptamer 13-2 fused via modified stem A to an ATP-binding aptamer, used with DMHBI (nucleic acid)
chain: CUAUUUCUGGAGGGGCGCUACUGUGUGGGAAGAAACUGUGGCACUUCGGUGCCAGCGUAUGGGUGGUUGGGUGCGGUCGGAGAUAGCUCGAGCAAUGC
modifications: listed as RNA, further chemistry not given here
fluorescence increase after addition of ATP ([6]; 1 mM ATP, DMHBI present): ~30 fold | molar fluorescence intensity relative to 13-2 parent aptamer ([6]; ATP-bound): ~20%
